# Experimental data from ChEMBL document CHEMBL1938330, “Inhibitory effects of polyphenols toward HCV from the mangrove plant Excoecaria agallocha L” (Bioorg Med Chem Lett, 2012).
# Key:
# [1] = Inhibition of Hepatitic C virus NS3/4A protease by FRET assay; set-up: species or system Hepacivirus hominis
# [2] = Selectivity index, ratio of CC50 for human Huh7.5 cells to EC50 for Hepatitis C virus infected in human HuH7.5 cells; format: toxicity, cell-based, Huh-7; conditions: read-out: Ratio CC50/EC50
# Hepatitis C virus = experiment: Antiviral activity against Hepatitis C virus infected in human Huh7.5 cells assessed as inhibition of viral replication after 96 hrs by quantitative RT-PCR analysis; format: functional, organism-based, Hepacivirus hominis; conditions: Huh-7, 96 h
# [3] = Cytotoxicity against human Huh7.5 cells after 96 hrs by MTT assay; format: cell-based, Huh-7
compound,measurement,setting,value
COc1cc(/C=C/CO[C@@H]2O[C@H](CO)[C@@H](O)[C@H](O)[C@H]2O)cc(OC)c1O,IC50,[1],> 10 µg/mL
COc1ccc(CO)cc1O[C@@H]1O[C@H](COC(=O)c2cc(O)c(O)c(O)c2)[C@@H](O)[C@H](O)[C@H]1O,IC50,[1],> 10 µg/mL
COc1cc(CO[C@@H]2O[C@H](CO)[C@@H](O)[C@H](O)[C@H]2O)cc(OC)c1O,IC50,[1],> 10 µg/mL
O=C(O[C@@H]1O[C@@H]2COC(=O)c3cc(O)c(O)c(O)c3-c3c(cc(O)c(O)c3O)C(=O)O[C@@H]([C@@H]2O)[C@H]1OC(=O)c1cc(O)c(O)c(O)c1)c1cc(O)c(O)c(O)c1,IC50,[1],> 10 µg/mL
O=C(O[C@@H]1O[C@@H]2COC(=O)c3cc(O)c(O)c(O)c3-c3c(cc(O)c(O)c3O)C(=O)O[C@H]([C@H]1O)[C@@H]2OC(=O)c1cc(O)c(O)c(O)c1)c1cc(O)c(O)c(O)c1,IC50,[1],> 10 µg/mL
O=C(O)C[C@@H]1C(=O)O[C@H]2[C@@H]3OC(=O)c4cc(O)c(O)c(O)c4-c4c(cc(O)c(O)c4O)C(=O)OC[C@H]2O[C@@H](OC(=O)c2cc(O)c(O)c(O)c2)[C@@H]3OC(=O)c2cc(O)c(O)c3c2[C@H]1[C@H](O)C(=O)O3 [CHEBULAGIC ACID],IC50,[1]; read-out: IC50,9.03 µM
same,selectivity ratio,[2],4.7
same,EC50,Hepatitis C virus,22.2 µM
same,CC50 at 96 h,[3],105 µM
Oc1cc(O)c2c(c1)O[C@H](c1ccc(O)c(O)c1)[C@@H](O)C2 [CIANIDANOL],IC50,[1],> 10 µg/mL
COc1ccc2c(O[C@@H]3C[C@H]4C(=O)N[C@]5(C(=O)O)C[C@H]5/C=C\CCCCC[C@H](NC(=O)OC5CCCC5)C(=O)N4C3)cc(-c3csc(NC(C)C)n3)nc2c1 [CILUPREVIR],IC50,[1]; read-out: IC50,1.54 µM
O=C(O[C@@H]1O[C@@H]2COC(=O)c3cc(O)c(O)c(O)c3-c3c(cc(O)c(O)c3O)C(=O)O[C@H]([C@H]1O)[C@@H]2O)c1cc(O)c(O)c(O)c1 [CORILAGIN],IC50,[1]; read-out: IC50,3.45 µM
same,selectivity ratio,[2],7.1
same,EC50,Hepatitis C virus,13.6 µM
same,CC50 at 96 h,[3],96.7 µM
COc1cc(O[C@@H]2O[C@H](CO[C@@H]3O[C@H](C)[C@@H](O)[C@H](O)[C@@H]3O)[C@@H](O)[C@H](O)[C@H]2O)ccc1O [CUNEATASIDES D],IC50,[1],> 10 µg/mL
O=c1oc2c(O)c(O[C@@H]3OC[C@@H](O)[C@H](O)[C@H]3O)cc3c(=O)oc4c(O)c(O)cc1c4c23 [ELLAGIC ACID 4-O-XYLOPYRANOSIDE],IC50,[1],> 10 µg/mL
OC[C@H]1O[C@@H](Sc2c(O)cc(O)c3c2O[C@H](c2ccc(O)c(O)c2)[C@@H](O)C3)[C@H](O)[C@@H](O)[C@@H]1O [EXCOECARIPHENOL A],IC50,[1],> 10 µg/mL
OC[C@H]1O[C@@H](Sc2c(O)cc(O)c3c2O[C@H](c2cc(O)c(O)c(O)c2)[C@@H](O)C3)[C@H](O)[C@@H](O)[C@@H]1O [EXCOECARIPHENOL B],IC50,[1],> 10 µg/mL
COC(=O)Cc1c(C(=O)O[C@H]2[C@H](OC(=O)c3cc(O)c(O)c(O)c3)O[C@@H]3COC(=O)c4cc(O)c(O)c(O)c4-c4c(cc(O)c(O)c4O)C(=O)O[C@H]2[C@@H]3O)cc(O)c(O)c1O [EXCOECARIPHENOL C],IC50,[1],> 10 µg/mL
O=C(O[C@@H]1O[C@@H]2COC(=O)c3cc(O)c(O)c4oc5c(O)c(O)cc(c5c34)C(=O)O[C@@H]3[C@H]1OC(=O)c1cc(O)c(O)c4c1[C@@H]1[C@@]5(C[C@]6(O)OC[C@@H](O)[C@@H]6O[C@@H]5C(O)(O)C(O)(O)[C@]1(O)O4)C(=O)O[C@@H]32)c1cc(O)c(O)c(O)c1 [EXCOECARIPHENOL D],IC50,[1]; read-out: IC50,6.93 µM
same,selectivity ratio,[2],4.5
same,EC50,Hepatitis C virus,12.6 µM
same,CC50 at 96 h,[3],56.2 µM
O=C1O[C@H]2[C@H](O)[C@@H](OC(=O)c3cc(O)c(O)c4c3[C@@H]3C1=CC(=O)C(O)(O)C3(O)O4)[C@H](OC(=O)c1cc(O)c(O)c(O)c1)O[C@@H]2CO (stereo partly drawn) [FUROSIN],IC50,[1],> 10 µg/mL
Oc1cc(O)c2c(c1)O[C@H](c1cc(O)c(O)c(O)c1)[C@@H](O)C2 [GALLOCATECHIN],IC50,[1],> 10 µg/mL
O=C1O[C@H]2[C@@H]3OC(=O)c4cc(O)c(O)c(O)c4-c4c(cc(O)c(O)c4O)C(=O)OC[C@H]2O[C@@H](OC(=O)c2cc(O)c(O)c(O)c2)[C@@H]3OC(=O)c2cc(O)c(O)c3c2[C@@H]2C1=CC(=O)[C@](O)(O3)C2(O)O [GERANIIN],IC50,[1]; read-out: IC50,8.91 µM
same,selectivity ratio,[2],1.9
same,EC50,Hepatitis C virus,33.2 µM
same,CC50 at 96 h,[3],63.4 µM
C[C@@H]1O[C@@H](OC[C@H]2O[C@@H](OCc3ccccc3)[C@H](O)[C@@H](O)[C@@H]2O)[C@H](O)[C@H](O)[C@H]1O [HYDRANGEIFOLIN I],IC50,[1],> 10 µg/mL
O=c1c(O[C@@H]2O[C@H](CO)[C@@H](O)[C@H](O)[C@H]2O)c(-c2ccc(O)c(O)c2)oc2cc(O)cc(O)c12 [ISOQUERCETIN],IC50,[1],> 10 µg/mL
COc1cc(O[C@@H]2O[C@H](CO)[C@@H](O)[C@H](O)[C@H]2O)cc(OC)c1O [KOABURASIDE],IC50,[1],> 10 µg/mL
